In a melting point compilation (Tetko et al.):

Row | Structure (SMILES) | melting point [°C]
1 | O=S1(=O)CC(Br)C(Br)C1 (stereo not given) | 143
2 | O=C(C1=NOC2C(=O)N(c3cccc([N+](=O)[O-])c3)C(=O)C12)c1ccccc1 (stereo not given) | 173
3 | CC1(C)C=Cc2c(ccc3c2OC2c4ccc(O)cc4OCC32)O1 (stereo not given) | 178
4 | O=C1C=C(NCc2cccnc2)C(=O)c2ccccc21 | 209
5 | O=C(O)c1ccccc1S(=O)(=O)O | 142
6 | Cc1c(Cl)c(C)c(Cl)c(Cl)c1Cl | 223
7 | Fc1c(CBr)cccc1C(F)(F)F | 48
8 | CC(=O)NC1C(O)CC(O)(C(=O)O)OC1C(O)C(O)CO (stereo not given) | 184 to 186
9 | O=S(=O)(Cl)c1c(Cl)cc(Br)cc1Cl | 45
10 | O=[N+]([O-])c1cccc2c(Br)n[nH]c12 | 175 to 185
11 | O=C1c2ccccc2C(=O)N1CCOCCO | 64
12 | CCCCCCc1ccc(C(=O)O)cc1 | 94 to 99
13 | COc1cccc2cc(C(=O)O)c(=O)oc12 | 214 to 216
14 | c1ccc2c(c1)CNC2 | 17
15 | COc1ccc(OCC(N)=S)cc1 | 113 to 114
16 | O=C(O)c1c(Br)cc(Br)c(O)c1Br | 147
17 | O=Cc1ccc(N2CCCC2)cc1 | 85
18 | CC(=O)Oc1ccccc1C1NC(=O)NC(C)=C1C(=O)OCc1ccccc1 (stereo not given) | 202 to 203
19 | O=C(Oc1c(Cl)cc(Cl)cc1Cl)C(=O)Oc1c(Cl)cc(Cl)cc1Cl | 188 to 192
20 | O=C1C=C[C@H](CO)O1 | 39 to 45
21 | COP(=S)(OC)Oc1cc(Cl)c(I)cc1Cl | 76
22 | COC(=O)c1cccc2cc[nH]c12 | 46 to 47
23 | O=C1CCC2C1C1CCC(=O)C21 (stereo not given) | 266
24 | O=C1c2ccccc2C(=O)N1CCNCCN1C(=O)c2ccccc2C1=O | 132
25 | Cc1cc2c(o1)-c1c(oc3ccccc13)CCC2(C)c1ccccc1 (stereo not given) | 135
26 | O=C1CCCN1CCO | 20

Row | Structure (SMILES) | melting point [°C]
27 | COC(=O)NNC(=O)OC | 129 to 131
28 | CN1CC(Br)C(=O)NC1=O (stereo not given) | 153 to 155
29 | CC(C)(Cl)CCC(C)(C)Cl | 67.5
30 | Cc1ccnc2c1ccc1c(C)ccnc12 | 194
31 | CCOC(=O)c1ccc(N/C=C2\C(=O)C3(C)CCC2C3(C)C)cc1 (stereo not given) | 105
32 | O=C(CCl)OCCOC(=O)CCl | 45.5
33 | CC(=O)CC[C@H]1[C@@H](C#N)[C@H](C(C)C)CC[C@@]1(C)OC(C)=O | 106 to 109
34 | O=C(Nc1ccc(Br)cc1)C(C(F)(F)F)C(F)(F)F | 186
35 | OCC1OC(SCCc2ccccc2)C(O)C(O)C1O (stereo not given) | 100
36 | CC(=O)Nc1ccc(N=Nc2ccc(N=Nc3ccc(/N=N/c4ccc(NC(C)=O)cc4)cc3)cc2)cc1 | 245 to 248
37 | C=CCC#N | -87
38 | Fc1ccccc1F | -34
39 | Cc1nc2ccc3ccccc3c2o1 | 37
40 | Fc1ccc(C=Nn2c(C(F)(F)F)n[nH]c2=S)cc1 | 276
41 | Cc1onc(-c2ccccc2)c1CBr | 61 to 63
42 | ClC1CCCCC1Cl (stereo not given) | -1.5
43 | CC12CCC(OC=O)CC1CCC1C2CCC2(C)C1CCC2(O)C#Cc1ccccc1 (stereo not given) | 205
44 | Cn1ncc(C(=O)Cl)c1Cl | 50 to 52
45 | CC(OCc1ccccc1)C(NC(=O)OC(C)(C)C)C(=O)O (stereo not given) | 116
46 | OCC1OC(Oc2ccc3cc(Br)ccc3c2)C(O)C(O)C1O (stereo not given) | 218 to 220
47 | CCOc1ccc(NC(=O)C(C(F)(F)F)C(F)(F)F)cc1 | 181
48 | CCOC(=O)c1c(NC(=S)Nc2ccc(F)cc2)sc2c1CCCC2 | 209 to 211
49 | CCOC(=O)C(=O)Nc1cc(C(F)(F)F)cc(C(F)(F)F)c1 | 90 to 92
50 | CCOC(OCC)C(N)=S | 91 to 94
51 | CC(C)(C)c1ccc(-c2nnc(S)n2-c2cccc(C(F)(F)F)c2)cc1 | 256 to 260
52 | N#CC12CC3CC(CC(C3)C1)C2 | 195

Row | Structure (SMILES) | melting point [°C]
53 | O=C(O)C1(C(F)(F)F)CC1 | 88
54 | CCOC(=O)Cc1ccncc1 | 19
55 | CCCCCCC(=O)OCCCC | -67.5
56 | COc1c(Br)cc(C)c2c1CCC2 | 30
57 | Nc1cc(N)c(/C=C/c2ccccc2)c(N)c1C=Cc1ccccc1 | 161
58 | O=C1Nc2ccccc2C=NC2CCCCC2N=Cc2ccccc2NC1=O (stereo not given) | 223 to 225
59 | CCCCCOc1ccc(/N=N/c2ccc(CCCC)cc2)cc1Cl | 41.5
60 | O=[N+]([O-])c1ccc(SCCO)cc1 | 60 to 61
61 | O=C(O)Cc1ccccc1C(=O)O | 178 to 182
62 | Clc1ccc2scc(CBr)c2c1 | 129 to 130
63 | N#C/C(=N/Nc1cccc2ccccc12)c1nc2ccccc2s1 | 254
64 | COc1c(C(=O)Cl)csc1Cl | 66 to 68
65 | O=[N+]([O-])Nc1ccccc1 | 47.3
66 | NC(=S)Nc1cccc(Cl)c1Cl | 160 to 162
67 | O=c1onc2cnc3ccccc3n12 | 160 to 170
68 | CCOCCc1ccc(OCCNc2ncnc(CC)c2Cl)c(C)c1C | 70
69 | C1CCCCCCCCCCCC1 | 23
70 | O=C(CBr)c1cc2cc(Br)ccc2o1 | 140 to 141
71 | N#Cc1ccc(Cn2ccnc2)cc1 | 103 to 104
72 | NC(=O)Nc1ccccn1 | 173 to 175
73 | CNc1ccc(NC)c2c1C(=O)c1ccccc1C2=O | 220
74 | COP(=S)(OC)SCN1C(=O)c2ccccc2C1=O | 72
75 | COc1cc(C(=O)O)cc(OC(C)=O)c1OC | 151
76 | Nc1ncc([N+](=O)[O-])cn1 | 237
77 | Nc1c(CN2CCOCC2)c(=O)oc2ccccc12 | 192
78 | O=C(Cl)c1ccc(-c2cccs2)cc1 | 113 to 115

Row | Structure (SMILES) | melting point [°C]
79 | Cc1oc(-c2ccccc2)nc1C(=O)O | 182 to 183
80 | CCSC1=NN=C(SCC)NN1 | 123 to 125
81 | NS(=O)(=O)c1cc2c(s1)C(O)CCS2=O (stereo not given) | 190
82 | CC1=C(c2ccccc2)Cc2ccccc21 | 75
83 | Cc1ccc([N+](=O)[O-])cc1S(=O)(=O)Cl | 44
84 | CN1CC[C@@H](c2ccc(F)cc2)[C@H](CO)C1 | 97 to 101
85 | Clc1ccc(N2CCNCC2)cc1Cl | 63
86 | CN1CCCN(C)CCN(C)CCCN(C)CC1 | 41 to 43
87 | CCC(C)c1cc([N+](=O)[O-])cc([N+](=O)[O-])c1OC(=O)C=C(C)C (stereo not given) | 70
88 | CCN(CC)C(=O)n1cnc(S(=O)(=O)c2c(C)cc(C)cc2C)n1 | 115
89 | O=c1cc(-c2ccccc2)oc2cccc(O)c12 | 158
90 | OCc1c2ccccc2cc2ccccc12 | 163
91 | FC(Br)C(F)(F)F (stereo not given) | -80
92 | COC(=O)c1cc2c(OC)cccc2[nH]1 | 140 to 142
93 | COc1ccc(C(=O)Cn2cc([N+](=O)[O-])nc2C)cc1 | 250 to 252
94 | CCCCCCCCc1ccccc1 | -36
95 | CCOC(=O)Cc1nc(O)cs1 | 153 to 155
96 | CC(C)Nc1ccc(C#N)cc1[N+](=O)[O-] | 113 to 115
97 | CC(C)(C)N(NC(=O)c1ccccc1)C(=O)c1cccc(C#N)c1 | 174
98 | O=C1CCCCCC1c1ccccc1 (stereo not given) | 21 to 23
99 | Cc1cccc(N(C)C(=S)Oc2ccc3ccccc3c2)c1 | 111
100 | CC(=O)NCO | 55 to 56
101 | Clc1ccc(Oc2ccccc2)cc1 | -8
102 | O=C(O)CCCCCCCCCCCCCCO | 97 to 99
103 | N#Cc1cc(I)c(O)c(I)c1 | 212
104 | CC(CNC(=O)c1ccccc1)C(=O)OCC(=O)C12OC(C)(C)OC1CC1C3CCC4=CC(=O)C=CC4(C)C3(F)C(O)CC12C (stereo not given) | 205

Row | Structure (SMILES) | melting point [°C]
105 | N#CCc1ccc(OCc2ccccc2)cc1 | 68
106 | O=C(O)C=Cc1ccc(F)cc1 | 207 to 210
107 | O=Cc1cc(Br)cs1 | 46 to 47
108 | O=Cc1cc([N+](=O)[O-])ccc1Sc1ccccn1 | 109 to 110
109 | CCN(CC)C(=O)C1C=C2c3cccc4[nH]c(Br)c(c34)CC2N(C)C1 (stereo not given) | 124
110 | Nn1c(Cc2ccccc2)nc2ccccc2c1=O | 111
111 | Cc1nc(-c2cccc(C=O)c2)no1 | 98 to 99
112 | OC1Cc2cccc(F)c21 (stereo not given) | 56
113 | CC(C)(C)S(=O)(=O)c1cnc(N2CCOCC2)nc1N | 196 to 198
114 | CCCc1nn(C)c2c(=O)nc(-c3cc(S(=O)(=O)N4CCN(C)CC4)ccc3OCC)[nH]c12 | 190
115 | CCCCOC(=O)CC | -75
116 | N#Cc1cc(Br)ccc1O | 160 to 162
117 | CC(=O)c1ccc(NC(=O)C(F)(F)C(F)(F)C(F)(F)C(F)(F)C(F)(F)C(F)(F)C(F)(F)C(F)(F)F)cc1 | 155
118 | Cc1onc(-c2c(F)cccc2Cl)c1C#N | 78 to 81
119 | CCOC(=O)c1c(SC)nn(C(=O)NNc2ccccc2)c1N | 205
120 | CC(=O)OC1CC2C(C)(C)CCCC2(C)C2=C1C(=O)C(C(C)C)=C(O)C2=O (stereo not given) | 213
121 | CC1(C)OC(C(O)CO)C(C(O)CO)O1 (stereo not given) | 87
122 | c1ccc(Cc2nc3ccccc3nc2Cc2ccccc2)cc1 | 118
123 | Cc1cccc(C)c1C(N)=O | 136 to 138
124 | CC1(C)C(=O)OOC1=O | 44 to 45
125 | O=C(O)c1cccc2c1Cc1ccccc1-2 | 247
126 | Oc1c(Cl)cc(Cl)cc1Sc1cc(Cl)cc(Cl)c1O | 188
127 | O=C=Nc1csc(-c2ccc(C(F)(F)F)cc2)n1 | 51
128 | FC(F)(F)c1cccc(-n2cc[nH]c2=S)c1 | 157 to 159
129 | N#Cc1c(C2CCCCC2)[nH]c(=S)[nH]c1=O | 300
130 | COC(=O)c1cc2ccccc2n1C(=O)OC(C)(C)C | 66 to 67
